Results reported in US20220119354A1, “DIAMINO-SUBSTITUTED PYRIDINES AND PYRIMIDINES AS HERBICIDES” (FMC Corporation, priority 2019, published 2022).

Legend:
Format in all cases: in vivo
[1] = system: barnyardgrass (Echinochloa crus-galli); assay: Test A preemergence, barnyardgrass; conditions: 0 to 100 scale, 0 is no effect, 100 is complete control
Procedure, shortened: (§1)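 Using a solvent/surfactant formulation, test chemicals were sprayed onto freshly seeded soil or onto 2–10 cm seedlings at the one- to two-leaf stage. Visual injury ratings on a 0–100 scale were made about 10 d later in the greenhouse.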

[2] = system: ryegrass, Italian (Lolium multiflorum); assay: Test A postemergence, Italian ryegrass; conditions: 0 to 100 scale, 0 no effect, 100 complete control
Procedure, shortened: as §1

kochia (Kochia scoparia) [3] = assay: Test A postemergence, kochia; conditions: 0 to 100 scale, 0 no effect, 100 complete control
Procedure, shortened: as §1

[4] = system: wheat (Triticum aestivum); assay: Test A postemergence, wheat; conditions: 0 to 100 scale, 0 no effect, 100 complete control
Procedure, shortened: as §1

[5] = system: sedge, umbrella (small-flower umbrella sedge, Cyperus difformis); assay: Test B flooded paddy test, umbrella sedge; conditions: Flood, 250 g ai/ha, applied to paddy water, 2-leaf stage, visual evaluation after 13 to 15 d
Procedure, shortened: (§2)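 Rating: 0 = no effect, 100 = complete control, visual, relative to untreated plants. Conditions: 2-leaf stage, 3 cm flood kept constant, compound put directly into water, 13–15 d greenhouse.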

corn (Zea mays) = assay: Test A postemergence, corn; conditions: 0 to 100 scale, 0 no effect, 100 complete control
Procedure, shortened: as §1

[6] = system: galium (catchweed bedstraw, Galium aparine); assay: Test A postemergence, galium; conditions: 0 to 100 scale, 0 no effect, 100 complete control
Procedure, shortened: as §1

[7] = system: blackgrass (Alopecurus myosuroides); assay: Test A postemergence, blackgrass; conditions: 0 to 100 scale, 0 no effect, 100 complete control
Procedure, shortened: as §1

rice (Oryza sativa) = assay: Test B flooded paddy test, rice; conditions: Flood, 250 g ai/ha, applied to paddy water, 2-leaf stage, visual evaluation after 13 to 15 d
Procedure, shortened: as §2

[8] = system: foxtail, giant (Setaria faberii); assay: Test A preemergence, giant foxtail; conditions: 0 to 100 scale, 0 is no effect, 100 is complete control
Procedure, shortened: as §1

[9] = system: pigweed (Amaranthus retroflexus); assay: Test A preemergence, pigweed; conditions: 0 to 100 scale, 0 is no effect, 100 is complete control
Procedure, shortened: as §1

kochia (Kochia scoparia) [10] = assay: Test A preemergence, kochia; conditions: 0 to 100 scale, 0 is no effect, 100 is complete control
Procedure, shortened: as §1

[11] = system: foxtail, giant (Setaria faberii); assay: Test A postemergence, giant foxtail; conditions: 0 to 100 scale, 0 no effect, 100 complete control
Procedure, shortened: as §1

[12] = system: ryegrass, Italian (Lolium multiflorum); assay: Test A preemergence, Italian ryegrass; conditions: 0 to 100 scale, 0 is no effect, 100 is complete control
Procedure, shortened: as §1

[13] = system: ducksalad (Heteranthera limosa); assay: Test B flooded paddy test, ducksalad; conditions: Flood, 250 g ai/ha, applied to paddy water, 2-leaf stage, visual evaluation after 13 to 15 d
Procedure, shortened: as §2

[14] = system: pigweed (Amaranthus retroflexus); assay: Test A postemergence, pigweed; conditions: 0 to 100 scale, 0 no effect, 100 complete control
Procedure, shortened: as §1

[15] = system: ragweed (common ragweed, Ambrosia elatior); assay: Test A postemergence, ragweed; conditions: 0 to 100 scale, 0 no effect, 100 complete control
Procedure, shortened: as §1

[16] = system: barnyardgrass (Echinochloa crus-galli); assay: Test B flooded paddy test, barnyardgrass; conditions: Flood, 250 g ai/ha, applied to paddy water, 2-leaf stage, visual evaluation after 13 to 15 d
Procedure, shortened: as §2

[17] = system: barnyardgrass (Echinochloa crus-galli); assay: Test A postemergence, barnyardgrass; conditions: 0 to 100 scale, 0 no effect, 100 complete control
Procedure, shortened: as §1

[18] = system: ragweed (common ragweed, Ambrosia elatior); assay: Test A preemergence, ragweed; conditions: 0 to 100 scale, 0 is no effect, 100 is complete control
Procedure, shortened: as §1

Q: With `CC(F)c1nc(N[C@H](C)c2cc3ccccc3o2)nc(N)c1C(F)(F)F` (stereo partly drawn) [Compound 112] as the compound, how does the “Barnyardgrass plant response rating” value ([1]; 31 g ai/ha) read?
A: The value was 0.

Q: And the “Barnyardgrass plant response rating” value ([1]; 125 g ai/ha)?
A: The value was 0.

Q: And the “Plant response rating, Ryegrass, Italian” value ([2]; 31 g ai/ha)?
A: Its value is 0.

Q: And the “Plant response rating, Ryegrass, Italian” value ([2]; 125 g ai/ha)?
A: The value was 0.

Q: And the “Plant response rating, Kochia” value (kochia (Kochia scoparia) [3]; 31 g ai/ha)?
A: Its value is 10.

Q: And the “Plant response rating, Kochia” value (kochia (Kochia scoparia) [3]; 125 g ai/ha)?
A: Its value is 60.

Q: What about the “Plant response rating, Wheat” value ([4]; 31 g ai/ha) of the same compound?
A: The value was 0.

Q: What about the “Plant response rating, Wheat” value ([4]; 125 g ai/ha) of the same compound?
A: The value was 0.

Q: What about the “Plant response rating, Sedge, Umbrella (0 to 100 scale, 0 is no effect, 100 is complete control)” value [5] of the same compound?
A: Its value is 0.

Q: And the “Plant response rating, Corn” value (corn (Zea mays); 31 g ai/ha)?
A: Its value is 30.

Q: And the “Plant response rating, Corn” value (corn (Zea mays); 125 g ai/ha)?
A: The value was 0.

Q: And the “Plant response rating, Galium” value ([6]; 31 g ai/ha)?
A: The value was 20.

Q: What about the “Plant response rating, Galium” value ([6]; 125 g ai/ha) of the same compound?
A: The value was 60.

Q: What about the “Plant response rating, Blackgrass” value ([7]; 31 g ai/ha) of the same compound?
A: The value was 0.

Q: And the “Plant response rating, Blackgrass” value ([7]; 125 g ai/ha)?
A: Its value is 0.

Q: What about the “Plant response rating, Rice (0 to 100 scale, 0 is no effect, 100 is complete control)” value (rice (Oryza sativa)) of the same compound?
A: Its value is 0.

Q: And the “Foxtail, Giant plant response rating” value ([8]; 31 g ai/ha)?
A: The value was 0.

Q: What about the “Foxtail, Giant plant response rating” value ([8]; 125 g ai/ha) of the same compound?
A: Its value is 0.

Q: And the “Pigweed plant response rating” value ([9]; 31 g ai/ha)?
A: Its value is 0.

Q: What about the “Pigweed plant response rating” value ([9]; 125 g ai/ha) of the same compound?
A: The value was 80.

Q: What about the “Kochia plant response rating” value (kochia (Kochia scoparia) [10]; 31 g ai/ha) of the same compound?
A: The value was 0.

Q: What about the “Kochia plant response rating” value (kochia (Kochia scoparia) [10]; 125 g ai/ha) of the same compound?
A: Its value is 70.

Q: What about the “Plant response rating, Foxtail, Giant” value ([11]; 31 g ai/ha) of the same compound?
A: Its value is 0.

Q: And the “Plant response rating, Foxtail, Giant” value ([11]; 125 g ai/ha)?
A: The value was 0.

Q: And the “Ryegrass, Italian plant response rating” value ([12]; 31 g ai/ha)?
A: The value was 0.

Q: And the “Ryegrass, Italian plant response rating” value ([12]; 125 g ai/ha)?
A: The value was 0.

Q: What about the “Plant response rating, Ducksalad (0 to 100 scale, 0 is no effect, 100 is complete control)” value [13] of the same compound?
A: The value was 0.

Q: What about the “Plant response rating, Pigweed” value ([14]; 31 g ai/ha) of the same compound?
A: The value was 30.

Q: And the “Plant response rating, Pigweed” value ([14]; 125 g ai/ha)?
A: The value was 60.

Q: And the “Plant response rating, Ragweed” value ([15]; 31 g ai/ha)?
A: The value was 0.

Q: And the “Plant response rating, Ragweed” value ([15]; 125 g ai/ha)?
A: The value was 0.

Q: What about the “Plant response rating, Barnyardgrass (0 to 100 scale, 0 is no effect, 100 is complete control)” value [16] of the same compound?
A: Its value is 0.

Q: What about the “Plant response rating, Barnyardgrass” value ([17]; 31 g ai/ha) of the same compound?
A: The value was 0.

Q: What about the “Plant response rating, Barnyardgrass” value ([17]; 125 g ai/ha) of the same compound?
A: Its value is 0.

Q: And the “Ragweed plant response rating” value ([18]; 31 g ai/ha)?
A: The value was 0.

Q: And the “Ragweed plant response rating” value ([18]; 125 g ai/ha)?
A: The value was 30.

Q: Which “Barnyardgrass plant response rating” value ([1]; 31 g ai/ha) does the source give for `C[C@@H](Nc1ncc(C(F)(F)F)c(N)n1)c1cc2c(F)ccc(F)c2s1` [Compound 114] here?
A: The value was 0.

Q: And the “Barnyardgrass plant response rating” value ([1]; 125 g ai/ha)?
A: Its value is 40.

Q: And the “Plant response rating, Ryegrass, Italian” value ([2]; 31 g ai/ha)?
A: The value was 0.

Q: And the “Plant response rating, Ryegrass, Italian” value ([2]; 125 g ai/ha)?
A: Its value is 40.

Q: What about the “Plant response rating, Kochia” value (kochia (Kochia scoparia) [3]; 31 g ai/ha) of the same compound?
A: The value was 50.

Q: What about the “Plant response rating, Kochia” value (kochia (Kochia scoparia) [3]; 125 g ai/ha) of the same compound?
A: The value was 80.

Q: What about the “Plant response rating, Wheat” value ([4]; 31 g ai/ha) of the same compound?
A: Its value is 0.

Q: And the “Plant response rating, Wheat” value ([4]; 125 g ai/ha)?
A: Its value is 30.

Q: What about the “Plant response rating, Sedge, Umbrella (0 to 100 scale, 0 is no effect, 100 is complete control)” value [5] of the same compound?
A: Its value is 80.

Q: And the “Plant response rating, Corn” value (corn (Zea mays); 31 g ai/ha)?
A: The value was 10.

Q: What about the “Plant response rating, Corn” value (corn (Zea mays); 125 g ai/ha) of the same compound?
A: The value was 30.

Q: And the “Plant response rating, Galium” value ([6]; 31 g ai/ha)?
A: Its value is 60.

Q: And the “Plant response rating, Galium” value ([6]; 125 g ai/ha)?
A: The value was 90.

Q: What about the “Plant response rating, Blackgrass” value ([7]; 31 g ai/ha) of the same compound?
A: Its value is 0.

Q: What about the “Plant response rating, Blackgrass” value ([7]; 125 g ai/ha) of the same compound?
A: The value was 30.

Q: What about the “Plant response rating, Rice (0 to 100 scale, 0 is no effect, 100 is complete control)” value (rice (Oryza sativa)) of the same compound?
A: Its value is 20.

Q: What about the “Foxtail, Giant plant response rating” value ([8]; 31 g ai/ha) of the same compound?
A: The value was 10.

Q: What about the “Foxtail, Giant plant response rating” value ([8]; 125 g ai/ha) of the same compound?
A: The value was 70.

Q: And the “Pigweed plant response rating” value ([9]; 31 g ai/ha)?
A: The value was 50.

Q: And the “Pigweed plant response rating” value ([9]; 125 g ai/ha)?
A: Its value is 100.

Q: And the “Kochia plant response rating” value (kochia (Kochia scoparia) [10]; 31 g ai/ha)?
A: The value was 30.

Q: What about the “Kochia plant response rating” value (kochia (Kochia scoparia) [10]; 125 g ai/ha) of the same compound?
A: The value was 60.

Q: What about the “Plant response rating, Foxtail, Giant” value ([11]; 31 g ai/ha) of the same compound?
A: Its value is 10.

Q: What about the “Plant response rating, Foxtail, Giant” value ([11]; 125 g ai/ha) of the same compound?
A: The value was 100.

Q: And the “Ryegrass, Italian plant response rating” value ([12]; 31 g ai/ha)?
A: The value was 30.

Q: And the “Ryegrass, Italian plant response rating” value ([12]; 125 g ai/ha)?
A: Its value is 50.

Q: What about the “Plant response rating, Ducksalad (0 to 100 scale, 0 is no effect, 100 is complete control)” value [13] of the same compound?
A: Its value is 65.

Q: What about the “Plant response rating, Pigweed” value ([14]; 31 g ai/ha) of the same compound?
A: Its value is 100.

Q: And the “Plant response rating, Pigweed” value ([14]; 125 g ai/ha)?
A: The value was 100.

Q: What about the “Plant response rating, Ragweed” value ([15]; 31 g ai/ha) of the same compound?
A: Its value is 40.

Q: What about the “Plant response rating, Ragweed” value ([15]; 125 g ai/ha) of the same compound?
A: The value was 80.

Q: What about the “Plant response rating, Barnyardgrass (0 to 100 scale, 0 is no effect, 100 is complete control)” value [16] of the same compound?
A: The value was 65.

Q: What about the “Plant response rating, Barnyardgrass” value ([17]; 31 g ai/ha) of the same compound?
A: The value was 10.

Q: And the “Plant response rating, Barnyardgrass” value ([17]; 125 g ai/ha)?
A: The value was 30.

Q: And the “Ragweed plant response rating” value ([18]; 31 g ai/ha)?
A: The value was 40.

Q: And the “Ragweed plant response rating” value ([18]; 125 g ai/ha)?
A: The value was 60.
